Test results from article PMC8765781, “A platform of assays for the discovery of anti-Zika small-molecules with activity in a 3D-bioprinted outer-blood-retina model” (PLoS ONE, 2022).
Like-named read-outs stand apart in the source and are kept apart here.

Legend:
[1] = tested on: ZIKV-RLuc (Cambodian strain FSS13025); experiment: microbe, parasite or virus in culture; type: cell-based, Zika virus; settings: Zika virus, Vero, 48 h, read-out: Rluc-ZIKV (ZIKV Antiviral Assays), IC50
[2] = tested on: caspase-3 activity induced by ZIKV in Vero cells; experiment: cells; type: cell-based; settings: Zika virus, read-out: Caspase 3 (ZIKV Antiviral Assays), IC50
in vitro = settings: African green monkey
[3] = tested on: ZIKV-mCherry (Cambodian strain FSS13025); experiment: microbe, parasite or virus in culture; type: cell-based, Zika virus; settings: for AC50: Zika virus, Vero
[4] = tested on: wild-type ZIKV (Ugandan MR766 strain) in Vero cells; experiment: ZIKV cytopathic effect (CPE) inhibition qHTS assay, CellTiter-Glo readout; type: cell-based, Zika virus; settings: for AC50 / IC50: Zika virus; for IC50: read-out: ZIKV-infection (CPE, ZIKV Antiviral Assays), IC50
[5] = ZIKV-infected Vero cells, 48 hr, unit inferred
[6] = Vero, from Hill fit of the response curve, 50% of maximum activity response, 194 cherry-picked compounds, protocol name not given, read-out: AC50
[7] = Vero, potency in log units (Molar) from Hill fit of the response curve, 194 cherry-picked compounds, protocol name not given, read-out: Log AC50 (converted)
[8] = Vero cells, wild-type ZIKV MOI 1, 48 hr, unit inferred
[9] = curve class v2 (Inglese et al. 2006)
[10] = difference between neutral response and maximum compound response
[11] = read-out: Log AC50 (M) (converted)
[12] = Vero, read-out: Log AC50 (M) (converted)

Compound	IC50 [1] [µM]	IC50 [2, 5] [µM]	CC50 (in vitro) [µM]	CC-v2 (curve class of the dose response curve) [3]	Efficacy (difference between neutral response and maximum compound response) [3]	Max Resp (difference between neutral response and response at highest compound concentration) [3]	AC50 [4, 6] [M]	AC50 [4, 7] [M]	IC50 [4, 8] [µM]	Efficacy [4, 10]	IC50 ([2]; Vero, 48 h) [µM]	AC50 [3] [M]	AC50 [3, 11] [M]	Efficacy [4]	AC50 ([4]; Vero) [M]	IC50 ([4]; Vero, 48 h) [µM]	AC50 [4, 12] [M]	CC50 at 48 h (in vitro) [µM]	also measured
CC1(C)CC2C3=CCC4[C@@]5(C)CC[C@H](OC6OCC(O)C(OC7OC(CO)C(O)C(O)C7O)C6O)C(C)(C)C5CC[C@@]4(C)[C@]3(C)C[C@H](O)[C@@]2(CO)[C@H](OC(=O)c2ccccc2)C1 (stereo partly drawn) [NCGC00347604-02]	5.52	> 48	> 50	-1.4	-68.489	-100.29	7.78e-06	7.78e-06	7.78	-34.889	–	–	–	–	–	–	–	–	CC-v2 (curve class classification of the dose response curve) [4, 9]: -3
C/C=C(\C)C(=O)O[C@H]1[C@H](OC(C)=O)[C@]2(CO)[C@H](O)[C@H](O)[C@]3(C)C(=CCC4[C@@]5(C)CC[C@H](O[C@@H]6O[C@H](C(=O)O)[C@@H](O)[C@H](O[C@@H]7OC[C@H](O)[C@H](O[C@@H]8OC[C@H](O)[C@H](O)[C@H]8O)[C@H]7O)[C@H]6O[C@@H]6O[C@H](CO)[C@@H](O)[C@H](O)[C@H]6O)C(C)(C)C5CC[C@]43C)[C@@H]2CC1(C)C (stereo partly drawn) [NCGC00381072-01]	4.45	–	> 50	-2.2	-56.385	-100.02	–	–	–	–	2.52	5.66e-06	5.66e-06	-30.676	8.71e-06	8.71	8.71e-06	–	–
CC1=CC[C@]2(C(=O)O[C@@H]3O[C@H](CO[C@@H]4O[C@H](CO)[C@@H](O[C@@H]5O[C@@H](C)[C@H](O)[C@@H](O)[C@H]5O)[C@H](O)[C@H]4O)[C@@H](O)[C@H](O)[C@H]3O)CC[C@]3(C)C(CCC4[C@@]5(C)C[C@@H](O)[C@H](O)[C@@](C)(CO)C5CC[C@]43C)C2C1C (stereo partly drawn) [NCGC00381125-01]	0.003	–	–	-1.4	-51.276	-44.108	–	–	–	–	0.01	–	–	-73.731	6.18e-06	6.18	6.18e-06	> 50	CC-v2 (curve class classification of the dose response curve) [4]: -3
CC(=O)OCC1OC(OC2COC(OC3COC(OC4C(OC5C(CO)OC(OC6CCC7(C)C(CCC8(C)C7CC=C7C9CC(C)(C)CCC9(C(=O)OC9OC(CO)C(O)C(O)C9OC9OCC(OC%10OCC(O)(CO)C%10O)C(O)C9O)C(O)CC78C)C6(C)C)C(O)C5O)OCC(O)C4O)C(O)C3O)C(O)C2O)C(OC(=O)/C=C/c2ccccc2)C(O)C1OC(C)=O (stereo not drawn) [NCGC00381294-01]	1.6	0.2	> 50	-1.3	-53.243	-100.305	5.62e-06	5.62e-06	5.62	-55.683	–	1.16e-06	1.16e-06	–	–	–	–	–	CC-v2 (curve class classification of the dose response curve) [4, 9]: -2.2
CC(=O)O[C@@H]1C[C@]2(C)[C@@]3(CCC4[C@@]5(C)CC[C@H](O[C@@H]6O[C@H](C(=O)O)[C@@H](O)[C@H](OC7OC(CO)C(O)C(O)[C@H]7O[C@@H]7O[C@@H](C)[C@H](O)[C@@H](O)[C@H]7O[C@@H]7OC[C@](O)(CO)[C@H]7O)[C@H]6OC6OC(CO)C(O)C(O)C6O)C(C)(C)C5CC[C@]42C)OC[C@@]12CCC(C)(C)CC23 (stereo partly drawn) [NCGC00381303-01]	1.77	–	–	-1.2	-57.722	-99.519	–	–	–	–	4.48	3.18e-06	3.18e-06	-19.952	2.75e-06	2.75	2.75e-06	–	CC50 at 48 h (in vitro; Vero cells): > 50 µM
C[C@@H]1O[C@@H](O[C@H]2[C@H](O[C@H]3[C@H](O)[C@@H](C(=O)O)O[C@@H](O[C@H]4CC[C@@]5(C)C(CC[C@]6(C)C5CC[C@]57OC[C@@]8(CCC(C)(C)CC85)[C@H](O)C[C@]76C)C4(C)C)[C@@H]3O[C@@H]3O[C@H](CO)[C@@H](O[C@@H]4OC[C@@H](O)[C@H](O)[C@H]4O)[C@H](O)[C@H]3O)O[C@H](CO)[C@H](O)[C@@H]2O)[C@H](O)[C@H](O)[C@H]1O (stereo partly drawn) [NCGC00384492-01]	5.61	–	–	-1.4	-52.527	-99.118	–	–	–	–	5.64	–	–	-27.701	1.1e-05	11	1.1e-05	–	CC50 at 48 h (in vitro; Vero cells): > 50 µM
C=C(C)C(=O)O[C@H]1CC2=CC(C/C(C)=C/[C@H]3OC(=O)C(=C)[C@H]13)OC2=O (stereo partly drawn) [NCGC00384526-01]	10.2	–	> 50	4	0	-97.701	–	–	–	–	6.46	–	–	-93.113	1.43e-05	14.3	1.43e-05	–	CC-v2 (curve class classification of the dose response curve) [4]: -1.1
C=C1CC[C@@]2(OC1)O[C@H]1CC3C4CC=C5C[C@@H](O[C@@H]6O[C@@H](C)[C@H](O)[C@@H](O)[C@H]6O)C[C@@H](O[C@@H]6O[C@H](C)[C@H](O)[C@H](O)[C@H]6O[C@@H]6O[C@@H](C)[C@H](O)[C@@H](O)[C@H]6O)[C@]5(C)C4CC[C@]3(C)[C@H]1[C@@H]2C (stereo partly drawn) [NCGC00384710-01]	6.95	1.24	–	-1.2	-59.162	-100.305	1.23e-05	1.23e-05	12.3	-26.266	–	7.14e-07	7.14e-07	–	–	–	–	> 50	–
C=C(C)C(C)C1OC23CC4(CO2)C(CCC2C5(C)CCC(OC6OCC(O)C(OC7OC(CO)C(O)C(OC8OCC(O)C(O)C8O)C7O)C6OC6OC(CO)C(O)C6O)C(C)(C)C5CCC24C)C3C(C)(O)C1OC(C)=O (stereo not drawn) [NCGC00384732-01]	6.95	0.16	–	-1.4	-78.707	-96.911	1.38e-05	1.38e-05	13.8	-32.277	–	–	–	–	–	–	–	> 50	–
C[C@@H]1O[C@@H](O[C@H]2[C@H](OC(=O)[C@]34CCC(C)(C)C[C@H]3C3=CCC5[C@@]6(C)C[C@H](O)[C@H](O[C@@H]7O[C@H](C(=O)O)[C@@H](O)[C@H](O)[C@H]7O)[C@@](C)(CO)C6[C@H](O)C[C@@]5(C)[C@]3(C)CC4)OC[C@H](O)[C@@H]2O)[C@H](O)[C@H](O)[C@H]1O[C@@H]1OC[C@@H](O)[C@H](O[C@@H]2O[C@@H](C)[CH][C@@H](O)[C@H]2O)[C@H]1O (stereo partly drawn) [NCGC00384879-01]	0.13	–	> 50	-1.2	-58.138	-66.904	–	–	–	–	5.64	6.35e-10	6.35e-10	-56.214	4.36e-06	4.36	4.36e-06	–	CC-v2 (curve class classification of the dose response curve) [4]: -3
CC1(C)CC[C@]2(C(=O)O)CC[C@]3(C)C(=CCC4[C@@]5(C)C[C@H](O)[C@H](O[C@@H]6OC[C@H](O)[C@H](O)[C@H]6O)[C@@](C)(CO)C5CC[C@]43C)[C@@H]2C1 (stereo partly drawn) [NCGC00384893-01]	9.81	–	–	-1.4	-59.557	-100.29	–	–	–	–	> 48	–	–	-24.539	5.44e-06	5.44	5.44e-06	–	CC50 at 48 h (in vitro; Vero cells): > 50 µM
C[C@H]1CC[C@@]2(OC1)O[C@H]1CC3C4CC[C@H]5C[C@@H](O[C@@H]6O[C@H](CO)[C@H](O[C@@H]7O[C@H](CO)[C@@H](O)[C@H](O[C@@H]8OC[C@@H](O)[C@H](O)[C@H]8O)[C@H]7O[C@@H]7O[C@H](CO)[C@@H](O)[C@H](O)[C@H]7O)[C@H](O)[C@H]6O)[C@H](O)C[C@]5(C)C4=CC(=O)[C@]3(C)[C@H]1[C@@H]2C (stereo partly drawn) [NCGC00385095-01]	6.95	7.84	–	-1.4	-65.601	-99.657	1.55e-05	1.55e-05	15.5	-21.201	–	–	–	–	–	–	–	> 50	–
